Values joined by “and” are separate entries in the source; they are usually repeats but may differ in a detail not shown here. Equal entries are not always repeated. Peptide text beside a SMILES is read from it. * marks the point of attachment. Fmoc = O=C(OCC1c2ccccc2-c2ccccc21)*
Key:
legumain [1] = target: T1, legumain (Mus musculus, UniProt O89017); experiment: Legumain assay with peptide 1 and Thioflavin T in buffer; format: biochemical
T1 construct: purchased Novus Biologicals
T1 sequence (O89017 18-325 limits assumed): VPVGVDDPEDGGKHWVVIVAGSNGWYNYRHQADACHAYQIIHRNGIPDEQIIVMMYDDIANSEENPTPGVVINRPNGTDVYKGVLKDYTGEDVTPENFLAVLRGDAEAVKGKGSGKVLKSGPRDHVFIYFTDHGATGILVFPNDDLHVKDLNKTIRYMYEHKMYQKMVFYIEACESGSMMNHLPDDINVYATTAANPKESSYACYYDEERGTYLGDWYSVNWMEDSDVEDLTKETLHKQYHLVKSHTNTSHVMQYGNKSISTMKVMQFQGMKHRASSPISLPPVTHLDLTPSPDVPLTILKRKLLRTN
Protocol: Legumain activation. To activate legumain, 5 μL of prolegumain solution (0.5 mg/mL in Tris buffer containing 10% glycerol) was mixed with 20 μL of activation buffer (50 mM Sodium Acetate, 100 mM NaCl, pH 4.0) and incubated at 37° C. for 2 h. It was then diluted in 225 μL of legumain assay buffer (50 mM MES, 250 mM NaCl, pH 5) to give a final legumain concentration of 10 μg/mL and immediately used in the assay.
Legumain assay. In a typical assay, peptide 1 was first dissolved in ultrapure water containing 25% DMSO at a peptide concentration of 10 mg/mL. It was then diluted in phosphate-buffered saline (PBS, pH 7.4, 10 mM) to give a peptide concentration of 2 mg/mL. Next, 50 μL of the peptide solution was mixed with 50 μL of MES buffer (50 mM MES, 250 mM NaCl, pH 5) containing activated legumain at different concentrations (0-2000 ng/mL) in a 96 well plate and the plate was incubated at 37° C. for 2 h. Note that the final peptide concentration was 1 mg/mL and final legumain concentrations were between 0 and 1000 ng/mL. Finally, 10 μL of ThT solution (1 mM, in ultrapure water) was added to each well, and ThT fluorescence was measured using a Spark 20M microplate reader (Tecan) after 15-30 min incubation at room temperature.
(§1) In the peptide concentration experiment, appropriate amounts of peptide 1 stock solution (10 mg/mL) were diluted in PBS and mixed with the MES buffer containing legumain, as described above, to give the final peptide concentrations between 0.05 and 1 mg/mL in the assay. In kinetic studies, ThT solution was mixed with the peptide immediately before the addition of activated legumain, and the plate was incubated in a Spark 20M microplate reader (Tecan) at 37° C. for 3 hours, and ThT fluorescence was recorded every 4 minutes. For the inhibitor experiment, the legumain inhibitor, RR-11a, was first dissolved in DMSO (1 mM), and appropriate amounts of inhibitor were incubated with legumain for about 1.0 hour at room temperature in 96 well plates. Finally, the legumain solutions incubated with different amounts of inhibitor were mixed with the peptide 1 solution, and the assay was performed as described above. For the experiments in plasma, 10 μL or 20 μL of PBS in the wells were replaced with human plasma to achieve final plasma concentrations of 10% and 20%, respectively.

legumain [2] = target: T1, legumain; experiment: Legumain activity detection in human plasma (peptide 1/ThT); format: biochemical
Protocol: as §1, with “For the experiments in plasma, 10 μL or 20 μL of PBS in the wells were replaced with human plasma to achieve final plasma concentrations of 10% and 20%, respectively.” left out
To assess the possibility of using the developed self-assembling polypeptides and methods in complex biological environments, legumain detection experiments in human plasma were performed. In initial studies, a background fluorescence signal in plasma (20%) was detected due to the nonspecific interactions between ThT and plasma proteins (see FIG. 24A) (Rovnyagina, N. R. et al., Binding of Thioflavin T by Albumins: An Underestimated Role of Protein Oligomeric Heterogeneity. Int. J. Biol. Macromol. 2018, 108, 284-290). While this background signal was relatively strong, the incubation of peptide 1 in legumain (1000 ng/mL) spiked plasma still produced a detectable fluorescence enhancement (about 2.5 fold) after the addition of ThT (90 μM). […]
Having a better understanding of the assay's background fluorescence, further studies were performed to optimize the assay performance in plasma. To reduce the background fluorescence, the assay was run in plasma using lower ThT concentrations (see FIGS. 26A and 26B). […] In the optimized assay conditions, a fluorescence enhancement of about 20 fold was obtained in 10% plasma at the legumain concentration of 1000 ng/mL as shown in FIG. 12A. […]

[3] = Solubility in aqueous solutions; format: physicochemical

With `C[C@H](NC(=O)[C@H](C)NC(=O)[C@H](CCC(=O)O)NC(=O)[C@H](Cc1ccccc1)NC(=O)[C@H](CCCCN)NC(=O)[C@H](Cc1ccccc1)NC(=O)OCC1c2ccccc2-c2ccccc21)C(=O)N[C@@H](CC(N)=O)C(=O)NCC(=O)N[C@@H](CCC(=O)O)C(=O)N[C@@H](CCC(=O)O)C(=O)NCC(=O)N[C@@H](CO)C(=O)NCC(=O)N[C@@H](CCC(=O)O)C(=O)N[C@@H](CCC(=O)O)C(=O)O` [peptide 1] (Fmoc-FKFEAANGEEGSGEE-OH; C-terminus assumed) the “fluorescence intensity at 24 hours compared with the intensity at two hours” value (legumain [1]; 1000 ng/mL legumain) was “about 2.5”, the “enhancement in the ThT emission intensity” value (legumain [1]; 1000 ng/mL legumain, about two hours, peptide 1 1 mg/mL, ThT 90 μM) was “about 32 fold” and the “enhancement in ThT emission” value (legumain [1]; 1 mg/mL peptide concentration, legumain 500 ng/mL) was 28 fold. For the same compound, the fluorescence enhancement (legumain [1]; legumain 10.0 ng/mL, about two hours, ThT 90 μM) was “about 1.3 fold”, the fluorescence enhancement (legumain [1]; legumain 25.0 ng/mL, about two hours, ThT 90 μM) was “about 3 fold” and the “limit of detection (LOD)” value (legumain [1]; legumain, buffer) was “about 12 ng/mL and 0.21 nM”. For the same compound, the “limit of quantification (LOQ)” value (legumain [1]; legumain, buffer) was “about 25 ng/mL and 0.45 nM”, the “enhancement in the ThT fluorescence in the absence of legumain” value (legumain [1]; no legumain, up to the highest peptide concentration (1.0 mg/mL)) was “no significant enhancement” and the “enhancement in the ThT emission” value (legumain [1]; peptide 1 1.0 mg/mL, ThT 90 μM, no legumain) was 1.4 fold. The “ThT emission intensity increase” value (legumain [1]; peptide concentration below 0.25 mg/mL, legumain 500 ng/mL) was 1.3-1.4 fold, the fluorescence enhancement (legumain [2]; 10% plasma, ThT 25 μM, legumain 1000 ng/mL) was “about 20 fold” and the fluorescence enhancement (legumain [2]; 20% plasma spiked with legumain 1000 ng/mL, ThT 90 μM) was “about 2.5 fold”. The “ON/OFF ratio of the assay” value (legumain [2]; albumin depleted 20% plasma) was “about 10” and the “solubility in aqueous solutions” value [3] was “good solubility”.
